Measured values from PubChem BioAssay (NCI).
Values joined by “and” are separate entries in the source; they are usually repeats but may differ in a detail not shown here. Identical values can stand only once.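 A five-concentration, 48-hour dose response in 96-well plates underlies each endpoint, interpolated linearly between surrounding concentrations. GI50 is the concentration that inhibits growth by half. The concentration for full growth arrest is given as TGI.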

How the values were obtained:
Experiment in all cases: growth of human tumour cells (NCI), 48 h
786-0 renal = tested on: 786-0 renal
A498 renal = tested on: A498 renal
HCT-15 colon = tested on: HCT-15 colon
HL-60(TB) leukemia = tested on: HL-60(TB) leukemia
HOP-62 NSCLC = tested on: HOP-62 NSCLC
MOLT-4 leukemia = tested on: MOLT-4 leukemia
NCI-H23 lung = tested on: NCI-H23 lung
NCI/ADR-RES ovarian = tested on: NCI/ADR-RES ovarian
OVCAR-8 ovarian = tested on: OVCAR-8 ovarian
SK-MEL-5 melanoma = tested on: SK-MEL-5 melanoma
SN12C renal = tested on: SN12C renal
SR leukemia = tested on: SR leukemia
UACC-62 melanoma = tested on: UACC-62 melanoma

Row | Compound | TGI (786-0 renal) | TGI (A498 renal) | TGI (HCT-15 colon) | TGI (HL-60(TB) leukemia) | TGI (HOP-62 NSCLC) | TGI (MOLT-4 leukemia) | TGI (NCI-H23 lung) | TGI (NCI/ADR-RES ovarian) [µM] | TGI (OVCAR-8 ovarian) | TGI (SK-MEL-5 melanoma) [µM] | TGI (SN12C renal) | TGI (SR leukemia) | TGI (UACC-62 melanoma) | GI50 (A498 renal) | GI50 (HOP-62 NSCLC) | GI50 (NCI-H23 lung) | GI50 (NCI/ADR-RES ovarian) [µM] | GI50 (OVCAR-8 ovarian) | GI50 (SN12C renal)
1 | N#Cc1c(N)nc2c(N=Nc3ccccc3)c(N)nn2c1Nc1ccccc1 | 38.5 µM | 59.1 µM | > 100 µM | 6.56 µM | 39.1 µM | 7.97 µM | 21.6 µM | 53.9 | 14.2 µM | 32.6 | 27.7 µM | 6.15 µM |  |  |  |  |  |  | 
2 | CCNC(=S)Nc1c(C#N)c2n(c1C(=O)OCC)CCCCC2 | > 100 µM | > 100 µM | > 100 µM | > 100 µM | > 100 µM | > 100 µM | > 100 µM | > 100 | > 100 µM | > 100 |  | > 100 µM | > 100 µM |  |  |  |  |  | 
3 | CSc1ncc2c(C#N)c3ccccn3c(=O)c2n1 | > 100 µM | > 100 µM | > 100 µM | > 100 µM | > 100 µM | > 100 µM | > 100 µM | > 100 | > 100 µM | > 100 | > 100 µM | > 100 µM | > 100 µM |  |  |  |  |  | 
4 | CCSC1=C(C#N)C2(CCCCC2)C2=C(CC(C)(C)CC2=O)N1 | > 100 µM | 64.6 µM | > 100 µM | > 100 µM |  | > 100 µM | > 100 µM | > 100 | > 100 µM | > 100 | > 100 µM | > 100 µM | > 100 µM |  |  |  |  |  | 
5 | C=CCC1(O)C(=O)OC2C(O)COC21O (configuration not stated) | > 100 µM | > 100 µM | > 100 µM | > 100 µM | > 100 µM | > 100 µM | > 100 µM | > 100 | > 100 µM | > 100 | > 100 µM | > 100 µM | > 100 µM |  |  |  |  |  | 
6 | c1ccc(CNCCCNCCCCNCCCNCc2ccccc2)cc1 | 2.97 µM |  | 33.8 µM | 4 µM | 17.1 µM | 2.74 µM | 12.3 µM | > 100 | 27 µM | > 56.2 | 15.5 µM | 25.6 µM | 21.1 µM |  |  |  |  |  | 
7 | c1ccc2c(c1)ccc1nc3ccccn3c12 | > 100 µM |  | > 100 µM | > 100 µM | > 100 µM | > 100 µM | > 100 µM | > 100 | > 100 µM | > 100 | > 100 µM | > 100 µM | > 100 µM |  |  |  |  |  | 
8 | CC(C)(C)OC(=O)N(CCCCNC(=O)c1ccccc1)CCCNC(=O)c1ccccc1 | > 100 µM | > 100 µM | > 100 µM | > 100 µM | > 100 µM | > 100 µM | > 100 µM | > 100 | > 100 µM | > 100 | > 100 µM | > 100 µM | > 100 µM |  |  |  |  |  | 
9 | COC(=O)C(=O)c1cc2ccccc2n1S(=O)(=O)c1ccccc1 | > 100 µM | > 100 µM | > 100 µM | > 100 µM | > 100 µM | > 100 µM | > 100 µM | > 100 | > 100 µM | > 100 | > 100 µM | > 100 µM | > 100 µM |  |  |  |  |  | 
10 | O=S(=O)(c1ccccc1)[C@@H]1[C@H]2C=C[C@](CS)(O2)[C@H]1S(=O)(=O)c1ccccc1 | 87.2 µM | > 100 µM | 28.4 µM | > 100 µM | > 100 µM | 43.6 µM | > 100 µM | > 100 | > 100 µM | > 100 | > 100 µM | > 100 µM | > 100 µM |  |  |  |  |  | 
11 | Cc1ccc(O)c(-c2cc(-c3ccccc3)nc(/N=C\c3ccccc3)n2)c1 | > 100 µM |  | > 100 µM | > 100 µM | 58.8 µM | > 100 µM | 81.5 µM | 85.6 | > 100 µM | > 100 | > 100 µM | > 100 µM | 48.6 µM |  |  |  |  |  | 
12 | Cc1ccc(C)c(NC(=O)/C(=N\N)C(c2cnc3ccc([N+](=O)[O-])cc3n2)[N+](=O)[O-])c1 (configuration not stated) | > 100 µM | > 100 µM | > 100 µM | > 100 µM | > 100 µM | > 100 µM | > 100 µM | > 100 | > 100 µM | > 100 | > 100 µM | > 100 µM | > 100 µM |  |  |  |  |  | 
13 | COc1ccc(/C=N/NS(=O)(=O)c2ccc(/C=C3\NC(=O)N(C)C3=O)cc2)cc1 | > 100 µM | > 100 µM | > 100 µM | > 100 µM | > 100 µM | > 100 µM | > 100 µM | > 100 | > 100 µM | > 100 | > 100 µM | > 100 µM | > 100 µM |  |  |  |  |  | 
14 | COc1cc(CC(C)N[C@@H](C)c2ccccc2)cc(OC)c1 (some centres not stated) | 17.3 µM and > 100 µM | 21 µM and > 100 µM | 16.1 µM and > 100 µM | 10.7 µM and > 100 µM | 24.2 µM and > 100 µM | 17.4 µM and > 100 µM | 27.3 µM and > 100 µM | > 100 | 25.7 µM and > 100 µM |  | 24.2 µM and > 100 µM | 15.2 µM and > 100 µM | 19.8 µM and > 100 µM | 7.9 µM and 41.8 µM | 11.2 µM and > 100 µM | 11.6 µM and > 100 µM | > 100 | 11.8 µM and > 100 µM | 11.8 µM and > 100 µM
15 | CC(=O)[C@H]1[C@@H](OCc2ccccc2)O[N+]([O-])=C(C)[C@@H]1c1ccccc1 | 31.4 µM | > 100 µM | 75 µM | 40.8 µM | > 100 µM | 41.2 µM | > 100 µM | > 100 | > 100 µM | > 100 |  | 42 µM | > 100 µM |  |  |  |  |  | 
16 | CC(=O)O[C@@H]1[C@@H](C)[C@]2(CC(c3ccoc3)OC2O)C2CCC3O[C@]3(C)[C@]2(C)[C@@H]1OC(C)=O (some centres not stated) | 39.9 µM | > 100 µM | > 100 µM | 48.7 µM |  | 64.9 µM | > 100 µM | > 100 | > 100 µM | 64.3 | > 100 µM | 58 µM | > 100 µM |  |  |  |  |  | 
17 | O=C(/C=C/c1cc(F)ccc1F)OCCc1ccccc1 | > 100 µM | > 100 µM | > 100 µM | 79.9 µM | > 100 µM | > 100 µM | > 100 µM | > 100 | > 100 µM | > 100 |  | > 100 µM | > 100 µM |  |  |  |  |  | 
